Legend:
[1] = target: Phosphodiesterase 4 (Homo sapiens, UniProt P27815+Q08499+Q07343+Q08493); test: Inhibition of phosphodiesterase 4 (PDE4) from U937 cells; assay type: cell-based; details: u-937
[2] = system: Mustela putorius furo; test: Emetic effect in fasted ferrets at 10 mg/kg peroral dose (n=3); assay type: functional; details: route oral
[3] = system: Mustela putorius furo; test: Emetic effect in fasted ferrets at 3 mg/kg peroral dose (n=2); assay type: functional; details: route oral
[4] = system: Mustela putorius furo; test: Emetic effect in fasted ferrets at 30 mg/kg peroral dose (n=2); assay type: functional; details: route oral
[5] = system: Cavia porcellus; test: In vivo inhibition of SRS-A mediated bronchoconstriction in guinea pig at 10 mg/kg peroral dose; assay type: functional; details: Lung, route oral
[6] = species: Homo sapiens; test: Inhibition of TNF-alpha production in human whole blood; assay type: functional, organism-based
[7] = species: Rattus norvegicus; test: Inhibition of gastric emptying in rats by peroral dose; assay type: functional; details: Stomach, po, read-out: ID50 (the source's name)
[8] = system: Rattus norvegicus; test: Inhibition of lipopolysaccharide-induced tumor necrosis factor alpha production in rats by peroral administration (n=7); assay type: functional; details: po, read-out: ID50 (the source's name)
[9] = system: Rattus norvegicus; test: Inhibition of lipopolysaccharide-induced tumor necrosis factor alpha production in rats at 10 mg/kg peroral dose (n=7); assay type: functional; details: route oral
[10] = system: Mustela putorius furo; test: Emetic effect in fasted ferrets at 10 mg/kg peroral dose (n=2); assay type: functional; details: route oral
[11] = system: Cavia porcellus; test: In vivo inhibition of slow reacting substance of anaphylaxis (SRS-A) mediated bronchoconstriction in guinea pig; assay type: functional, organism-based; details: Lung
[12] = system: Rattus norvegicus; test: Inhibition of gastric emptying in rats […] peroral dose; assay type: functional; details: Stomach, route oral, read-out: ID50 (the source's name)
[13] = system: Rattus norvegicus; test: Inhibition of lipopolysaccharide-induced tumor necrosis factor alpha production in rats at 3 mg/kg peroral dose (n=7); assay type: functional; details: route oral
[14] = system: Rattus norvegicus; test: Inhibition of lipopolysaccharide-induced tumor necrosis factor alpha production in rats by peroral administration; assay type: functional; details: po, read-out: ID50 (the source's name)

Cc1nn(C)c2ncc(C(N)=O)c(Nc3cccc(OC4CCCCC4)c3)c12
IC50 [1]: > 100 nM

COC(=O)N1CC[C@H](Oc2cccc(Nc3c(C(N)=O)cnc4c3c(C)nn4C)c2)C1
No. of ferrets [2]: 0 | No. of ferrets [3]: 0 | No. of ferrets [4]: 2 | inhibition in vivo at 10 mg/kg [5]: 45% | IC50 [6]: 4800 nM | IC50 [1]: 10 nM | ED50 [7]: 15 mg/kg | ED50 [8]: 1 mg/kg

COc1ccc(Nc2c(C(N)=O)cnc3c2c(C)nn3C)cc1
IC50 [1]: > 100 nM

Cc1nn(C)c2ncc(C(N)=O)c(Nc3cccc(O)c3)c12
IC50 [1]: 97 nM | inhibition in vivo at 10 mg/kg [9]: 40%

Cc1nn(C)c2ncc(C(N)=O)c(Nc3cccc(O[C@H]4CCN(C(=O)OC(C)(C)C)C4)c3)c12
IC50 [1]: > 300 nM

CC(=O)N1CC[C@H](Oc2cccc(Nc3c(C(N)=O)cnc4c3c(C)nn4C)c2)C1
IC50 [1]: > 300 nM

Cc1nn(C)c2ncc(C(N)=O)c(Nc3ccccc3)c12
IC50 [1]: 36 nM | inhibition in vivo at 10 mg/kg [9]: 48%

COc1cccc(Nc2c(C(N)=O)cnc3c2c(C)nn3C)c1
No. of ferrets [10]: 0 | No. of ferrets [3]: 0 | No. of ferrets [4]: 1 | IC50 [11]: 6800 nM | IC50 [6]: 3000 nM | IC50 [1]: 5 nM | ED50 [12]: 23 mg/kg | ED50 [8]: 2.4 mg/kg

Cc1nn(C)c2ncc(C(N)=O)c(Nc3cccc(C#N)c3)c12
IC50 [1]: 85 nM | inhibition in vivo at 3 mg/kg [13]: 2%

COc1ccccc1Nc1c(C(N)=O)cnc2c1c(C)nn2C
IC50 [1]: 76 nM | inhibition in vivo at 10 mg/kg [9]: 68%

Cc1nn(C)c2ncc(C(N)=O)c(Nc3cccc(OC4CCCC4)c3)c12
IC50 [1]: > 100 nM | inhibition in vivo at 10 mg/kg [9]: 39%

Cc1nn(C)c2ncc(C(N)=O)c(Nc3cccc(O[C@H]4CCN(S(C)(=O)=O)C4)c3)c12
IC50 [1]: 250 nM

Cc1nn(C)c2ncc(C(N)=O)c(Nc3cccc(O[C@H]4CCNC4)c3)c12
IC50 [1]: > 300 nM

Cc1nn(C)c2ncc(C(N)=O)c(Nc3cccc(OC4CCC4)c3)c12
IC50 [1]: > 100 nM

COc1ccc([C@]2(C#N)CC[C@@H](C(=O)O)CC2)cc1OC1CCCC1 [CILOMILAST]
IC50 [11]: 4500 nM | ED50 [7]: 5.7 mg/kg | ED50 [14]: 1.7 mg/kg
